Assay results from patent US20260183322A1, “BORON-BASED ENOLASE LIGANDS AND METHODS OF USE FOR TREATMENT OF CANCER” (LOMA LINDA UNIVERSITY, priority 2022, published 2026).

Assays:
Assay type in all cases: cell-based
[1] = system: parental and DR cell lines (PC3 and DU145); test: Cytotoxic activity in parental and DR prostate cancer cell lines; details: for cytotoxic activity (anti-cancer effects): general statement; for cytotoxicity compared with the other compounds of the ten: in vitro cytotoxicity and anti-proliferative data in docetaxel resistant PCa cell lines; for cell viability: parental and DR cell lines (PC3 and DU145)
Text: Out of the initial ten compounds, two target-to-hit specific ligands were identified, BT-768 and BT-772, from the diazaborine-based pharmacophore group and 2-Chloro substituted acetamide derivatives. BT-768 and BT-772 were selected for further studies based on their in vitro cytotoxicity and anti-proliferative data in docetaxel resistant PCa cell lines (see FIG. 3A and FIG. 3B, and FIG. 4A and FIG. 4B). […] The boron-based ligands BT-768 and BT-772 cytotoxic activity in parental and DR cell lines (PC3 and DU145) were then measured.
(§1) FIG. 3A and FIG. 3B, for example, are graphical representations of 3-(4,5-dimethylthiazol-2-yl)-2,5-diphenyl-2H-tetrazolium bromide MTT assay-based dose response curve for the ligand BT-772. FIG. 3A and FIG. 3B represent the average of three independent experiments in triplicates normalized to untreated control assays. As shown in FIG. 3A and FIG. 3B, cell viability was measured by MTT assay. In FIG. 3A, PC3 and PC3-DR cells were treated with increasing concentrations of BT-772 for twenty-four hours.
(§2) In FIG. 3B, DU145 and DU145-DR cells were treated with increasing concentrations of BT-772 for twenty-four hours.

[2] = system: PC3-DR cells; test: Clonogenic assay, PC3-DR; details: 6-well plates, 10 days
Description: FIG. 4A is a photographic image of a clonogenic assay-based dose response for the ligand BT-772 in the PC3 and PC3-DR cell lines, in accordance with an embodiment of the disclosure.
(§3) FIG. 4A and FIG. 4B, for example, show images of clonogenic assays, used primarily to determine cancer cell colony formation capacity and proliferation. In FIG. 4A, PC3 and PC3-DR cells were grown at low density in 6-well plates and allowed to form clones for 10 days.

[3] = system: PC3 prostate cancer cell line; test: MTT assay cell viability, PC3; details: Homo sapiens, PC-3, PC3 cells, twenty-four hours, read-out: IC50 (drug concentration causing 50% inhibition), cytotoxic activity
Text: (§4) FIG. 3A is a graphical representation of 3-(4,5-dimethylthiazol-2-yl)-2,5-diphenyl-2H-tetrazolium bromide (MTT) assay-based dose response curve for the ligand BT-772 in the PC3 prostate cancer cell line and its taxane resistant variant PC3-DR, in accordance with an embodiment of the disclosure.
as §1

[4] = system: DU145-DR (taxane resistant variant of DU145); test: MTT assay cell viability, DU145-DR; details: Homo sapiens, DU-145, DU145-DR cells, twenty-four hours, read-out: IC50, cytotoxic activity
Text: (§5) FIG. 3B is a graphical representation of 3-(4,5-dimethylthiazol-2-yl)-2,5-diphenyl-2H-tetrazolium bromide MTT assay-based dose response curve for the ligand BT-772 in the DU145 prostate cancer cell line and its taxane resistant variant DU145-DR, in accordance with an embodiment of the disclosure.
as §1, §2

[5] = system: DU145-DR cells; test: Clonogenic assay, DU145-DR; details: DU145-DR cells growing as colonies
Description: (§6) FIG. 4B is a photographic image of a clonogenic assay-based dose response for the ligand BT-772 in the DU145 and DU145-DR cell lines, in accordance with an embodiment of the disclosure.
as §3
(§7) In FIG. 4B, DU145 and DU145-DR cells growing as colonies were treated with low micromolar concentrations of BT-772 and clonogenicity was noticeable inhibited at concentrations above 3 μM in DU145 cells and at concentrations above 1 μM in DU145-DR cells.

[6] = system: PC3-DR (taxane resistant variant of PC3); test: MTT assay cell viability, PC3-DR; details: PC3-DR cells, twenty-four hours, read-out: IC50 (drug concentration causing 50% inhibition), cytotoxic activity
Text: as §4, §1

[7] = system: DU145 prostate cancer cell line; test: MTT assay cell viability, DU145; details: Homo sapiens, DU-145, DU145 cells, twenty-four hours, read-out: IC50, cytotoxic activity
Text: as §5, §1, §2

[8] = system: DU145 cells; test: Clonogenic assay, DU145; details: DU145 cells growing as colonies
Description: as §6, §3, §7

## N#Cc1ccc(B2Nc3ccccc3-c3nc4ccccc4n32)s1 [BT-768, 5-(benzo[e]benzo[4,5]imidazo[1,-c][1,3,2]diazaborinin-6 (5H)-yl)thiopene-2-carbonitrile]
[1]
  cytotoxic activity (anti-cancer effects): low μM cytotoxic activity
  cytotoxicity compared with the other compounds of the ten: higher cytotoxic than the other eight compounds
  cell viability: dose-dependent reduction in cell viability

## Cc1ccc(CN(C(=O)CCl)c2cccc(B3OC(C)(C)C(C)(C)O3)c2)cc1 [BT-772, 2-chloro-N-(4-methylbenzyl)-N-(3-(4,4,5,5-tetramethyl-1,3,2-dioxaborolan-2-yl)phenyl) acetamide]
[2]
  concentration above which clonogenicity was noticeably inhibited: above 3 M
[3]
  IC50: 5 to 10 µM
[4]
  IC50: 5 to 10 µM
[5]
  concentration above which clonogenicity was noticeably inhibited: above 1 μM
[6]
  IC50: 5 to 10 µM
[1]
  cytotoxic activity (anti-cancer effects): low μM cytotoxic activity
  cytotoxicity compared with the other compounds of the ten: higher cytotoxic than the other eight compounds
  cell viability: dose-dependent reduction in cell viability
[7]
  IC50: 5 to 10 µM
[8]
  concentration above which clonogenicity was noticeably inhibited: above 3 μM
